From US20230017045A1, “PYRIDINE AND PYRIMIDINE CARBOXYLATE HERBICIDES AND METHODS OF USE THEREOF” (Dow AgroSciences LLC, priority 2017, published 2023)
Like-named read-outs stand apart in the source and are kept apart here.

Tested on: test plant species
Assay: Post-emergent herbicidal activity test (greenhouse, foliar spray, visual growth reduction)
Assay type: in vivo
Details: post-emergence, 336 h, 140 g ai/ha
Method in brief: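 Scoring used a 0 to 100 percent visual scale of growth reduction against solvent-treated controls, read 14 d after spraying. Applications went onto plants at first or second true leaf stage, 187 L/ha, with crop oil concentrate and X-77 surfactant in the carrier. Post-treatment watering was by subirrigation to avoid wash-off.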

[1] = ALOMY: blackgrass (Alopecurus myosuroides), 14 days after application, read-out: Visual Growth Reduction (%) 14 Days After Application, ALOMY
[2] = AMARE: redroot pigweed (Amaranthus retroflexus), 14 days after application, read-out: Visual Growth Reduction (%) 14 Days After Application, AMARE
[3] = AVEFA: wild oat (Avena fatua), 14 days after application, read-out: Visual Growth Reduction (%) 14 Days After Application, AVEFA
[4] = CHEAL: lambsquarters (Chenopodium album), 14 days after application, read-out: Visual Growth Reduction (%) 14 Days After Application, CHEAL
[5] = CIRAR: canada thistle (Cirsium arvense), 14 days after application, read-out: Visual Growth Reduction (%) 14 Days After Application, CIRAR
[6] = CYPES: yellow nutsedge (Cyperus esculentus), 14 days after application, read-out: Visual Growth Reduction (%) 14 Days After Application, CYPES
[7] = DIGSA: crabgrass (Digitaria sanguinalis), 14 days after application, read-out: Visual Growth Reduction (%) 14 Days After Application, DIGSA
[8] = ECHCG: barnyardgrass (Echinochloa crus-galli), 14 days after application, read-out: Visual Growth Reduction (%) 14 Days After Application, ECHCG
[9] = IPOHE: ivy-leaf morning glory (Ipomoea hederacea), 14 days after application, read-out: Visual Growth Reduction (%) 14 Days After Application, IPOHE
[10] = KCHSC: kochia (Bassia scoparia), 14 days after application, read-out: Visual Growth Reduction (%) 14 Days After Application, KCHSC
[11] = ORYSA: rice (Oryza sativa), 14 days after application, read-out: Visual Growth Reduction (%) 14 Days After Application, ORYSA
[12] = SETFA: giant foxtail (Setaria faberi), 14 days after application, read-out: Visual Growth Reduction (%) 14 Days After Application, SETFA
[13] = SORVU: grain sorghum (Sorghum vulgare), 14 days after application, read-out: Visual Growth Reduction (%) 14 Days After Application, SORVU
[14] = STEME: common chickweed (Stellaria media), 14 days after application, read-out: Visual Growth Reduction (%) 14 Days After Application, STEME
[15] = TRZAS: wheat, spring (Triticum aestivum), 14 days after application, read-out: Visual Growth Reduction (%) 14 Days After Application, TRZAS
[16] = blackgrass (Alopecurus myosuroides), 14 Days After Application, read-out: Visual Growth Reduction (%) ALOMY
[17] = canada thistle (Cirsium arvense), 14 Days After Application, read-out: Visual Growth Reduction (%) CIRAR
[18] = crabgrass (Digitaria sanguinalis), 14 Days After Application, read-out: Visual Growth Reduction (%) DIGSA
[19] = lambsquarters (Chenopodium album), 14 Days After Application, read-out: Visual Growth Reduction (%) CHEAL
[20] = redroot pigweed (Amaranthus retroflexus), 14 Days After Application, read-out: Visual Growth Reduction (%) AMARE
[21] = wild oat (Avena fatua), 14 Days After Application, read-out: Visual Growth Reduction (%) AVEFA
[22] = yellow nutsedge (Cyperus esculentus), 14 Days After Application, read-out: Visual Growth Reduction (%) CYPES

Measured: pest or weed control at 140 g/ha

COC(=O)c1nc(-c2ccc(C(F)(F)F)c([S+](C)[O-])c2Cl)ccc1Cl (stereo not shown) [F119, methyl 3-chloro-6-(2-chloro-3-(methylsulfinyl)-4-(trifluoromethyl)phenyl)picolinate]
0 to 29%: [1] | [2] | [3] | [4] | [5] | [6] | [7] | [8] | [9] | [10] | [11] | [12] | [13] | [14] | [15]

CCOC(=O)c1nc(-c2ccc(Cl)c(OC)c2F)cc(OCC)c1N [F77, ethyl 3-amino-6-(4-chloro-2-fluoro-3-methoxyphenyl)-4-ethoxypicolinate]
45 to 59%: [4]
0 to 29%: [1] | [3] | [5] | [6] | [7] | [8] | [9] | [11] | [12] | [13] | [14] | [15]

COC(=O)c1nc(-c2ccc(C(F)F)cc2)ncc1Cl [F319, Methyl 5-chloro-2-(4-(difluoromethyl)phenyl)pyrimidine-4-carboxylate]
0 to 29%: [8] | [10] | [11] | [12] | [13] | [14] | [15] | [16] | [17] | [18] | [20] | [21] | [22]
30 to 44%: [9] | [19]

CO/N=C/c1ccc(-c2ccc(Cl)c(C(=O)OC)n2)c(Cl)c1 [F21, methyl 3-chloro-6-(2-chloro-4-((methoxyimino)methyl)phenyl)picolinate]
0 to 29%: [1] | [2] | [3] | [4] | [5] | [6] | [7] | barnyardgrass (Echinochloa crus-galli), 14 Days After Application, read-out: Visual Growth Reduction (%) ECHCG | common chickweed (Stellaria media), 14 Days After Application, read-out: Visual Growth Reduction (%) STEME | giant foxtail (Setaria faberi), 14 Days After Application, read-out: Visual Growth Reduction (%) SETFA | ivy-leaf morning glory (Ipomoea hederacea), 14 Days After Application, read-out: Visual Growth Reduction (%) IPOHE | johnsongrass (Sorghum vulgare), 14 Days After Application, read-out: Visual Growth Reduction (%) SORVU | kochia (Bassia scoparia), 14 Days After Application, read-out: Visual Growth Reduction (%) KCHSC | rice (Oryza sativa), 14 Days After Application, read-out: Visual Growth Reduction (%) ORYSA | wheat, spring (Triticum aestivum), 14 Days After Application, read-out: Visual Growth Reduction (%) TRZAS

COc1c(Cl)cc(Cl)c(-c2nc(C(=O)OCc3ccccc3)c(Cl)cc2F)c1F [F300, Benzyl 3-chloro-6-(4,6-dichloro-2-fluoro-3-methoxyphenyl)-5-fluoropicolinate]
45 to 59%: [17]
0 to 29%: [8] | [11] | [12] | [13] | [14] | [15] | [16] | [18] | [20] | [21] | [22]
75 to 84%: [19]
60 to 74%: [9]
30 to 44%: [10]

O=C(O)c1nc(-c2ccc(C(F)(F)F)cc2F)c(F)cc1Cl [F160, 3-Chloro-5-fluoro-6-(2-fluoro-4-(trifluoromethyl)phenyl) picolinic acid]
95 to 100%: [2] | [4] | [8] | [9] | [10] | [13]
85 to 94%: [3] | [5] | [7] | [12] | [15]
75 to 84%: [1]
60 to 74%: [6] | [11]
30 to 44%: [14]

O=C(O)c1nc(-c2cc3c(cc2Cl)OC(F)(F)O3)c(F)cc1Cl [F175, 3-Chloro-6-(6-chloro-2,2-difluorobenzo[d] [1,3]dioxol-5-yl)-5-fluoropicolinic acid]
60 to 74%: [1] | [3]
0 to 29%: [6] | [14]
95 to 100%: [2] | [4] | [7] | [9] | [13]
45 to 59%: [11]
85 to 94%: [5] | [8] | [10] | [12] | [15]

COC(=O)c1nc(-c2c(Cl)cccc2OC)c(F)cc1Cl [F301, Methyl 3-chloro-6-(2-chloro-6-methoxyphenyl)-5-fluoropicolinate]
0 to 29%: [8] | [9] | [10] | [11] | [12] | [13] | [14] | [15] | [16] | [17] | [18] | [19] | [20] | [21] | [22]
